The results in this text go back to patent US20250387358A1 (SpringWorks Therapeutics, Inc., priority 2024, published 2025).

This assay deals with NF1-associated plexiform neurofibromas (PNs). Description: Phase 2b trial, efficacy by BICR volumetric MRI per REiNS criteria. To be noted: observed time. The assay is classed as in vivo, human. As for the experimental part:
Participants were screened (assessed for eligibility as described below). […] The median age was 34.5 years (range 18 to 69 years); 85% were white and 64% were female. […] The most commonly reported morbidities were pain (90%) and disfigurement or major deformity (52%).
The median age was 10 years (range 2 to 17 years); 66% were white and 54% were female. […] The most commonly reported morbidities were pain (70%) and disfigurement or major deformity (50%).
Study treatment was administered orally at a twice daily (BID) dose specified in the table below. Dosing was on a 28-day Cycle (4-week course) with a 3 week on/1 week off schedule. The treatment period will last for up to 24 Cycles followed by a 30-day Safety Follow-Up period.
A partial response was defined as PN decrease ≥20% compared to baseline using centrally read MRI volumetric analysis.
The major efficacy outcome measure was confirmed objective response rate (ORR), defined as the percentage of patients with complete response (disappearance of the target PN) or confirmed partial response (≥20% reduction in PN volume confirmed at a subsequent tumor assessment within 2-6 months during the 24-cycle treatment phase). Responses were assessed by blinded independent central review (BICR) using volumetric magnetic resonance imaging (MRI) analysis per Response Evaluation in Neurofibromatosis and Schwannomatosis (REINS) criteria. A secondary efficacy objective was to determine the duration of response for patients who achieved a confirmed objective response.

Where [1] appears, read: Pediatric, first DoR line (r12).
Setting [2] is: Pediatric, second DoR line (r13).

For the compound `O=C(NOC[C@H](O)CO)c1ccc(F)c(F)c1Nc1ccc(I)cc1F` (single isomer, unassigned) [mirdametinib], the “DoR ≥12 months, % of responders” value runs as follows: (Adult, first DoR line (r12)) “(88%)”; (Adult, second DoR line (r13)) “(48%)”; under setting [1], “(90%)”; under setting [2], “(66%)”. Also, the “DoR ≥12 months, number of responders” value is recorded as 21 (Adult, first DoR line (r12)); 14 (Adult, second DoR line (r13)); 26 under setting [1]; 19 under setting [2].
